Experiments:
Type in all cases: biochemical
JAK1 = JAK1 (Homo sapiens (Human), UniProt P23458); assay: Purified kinase assay (Z'-LYTE), JAK1; conditions: Table 1; read-out: JAK1 IC50
Experimental: (§1) JAK and TYK2 tyrosine phosphorylation activity is measured using the Z′-LYTE™ Technology developed by Invitrogen Corporation (Carlsbad, Calif.). For JAK1, JAK2 and JAK3 the Z′-LYTE™ Kinase Assay Kit-Tyr6 Peptide (part number PV4122) was used. For TYK2 the Z′-LYTE™ Kinase Assay Kit-Tyr6 Peptide (part number PV3192) was used. The Z′-LYTE™ biochemical assay employs a fluorescence resonance energy transfer (FRET) coupled-enzyme format and is based on the differential sensitivity of phosphorylated and non-phosphorylated peptides to proteolytic cleavage. The assay uses a synthetic peptide substrate that is labeled with a donor fluorophore (coumarin) and an acceptor fluorophore (fluorescein) that make up a FRET pair. In the primary reaction (the Kinase Reaction), the kinase transfers the γ-phosphate of ATP to a single tyrosine residue on the substrate, while the presence of a kinase inhibitor in the primary reaction suppresses phosphorylation. In the secondary reaction (the Development Reaction), a site-specific protease (the Development Reagent) is added. The development buffer quenches the Kinase Reaction, while the protease recognizes and cleaves non-phosphorylated Z′-LYTE™ peptide substrate. Cleavage disrupts FRET between the donor and acceptor fluorophores on the non-phosphorylated substrate, while uncleaved, phosphorylated substrate maintains FRET.
(§2) To test the ability of candidate molecules to inhibit JAK tyrosine phosphorylation activity, molecules are reconstituted in 100% DMSO and serially diluted 1:10 in polypropylene v-bottom microtiter plates. The candidate molecules are then diluted 1:25 into kinase buffer and 2.5 μl transferred into duplicate wells of a 384 well low volume black microtiter assay plate (Corning, USA). The final DMSO concentration in the assay is 1%. The kinase reaction contains 2.5 μl of a candidate molecule, 5 μl of catalytic domain recombinant Kinase enzyme+Tyr peptide substrate (Invitrogen, CA) and ATP (Invitrogen, CA). The kinase reaction is allowed to proceed for 1 hour at room temperature. The protease reaction is initiated by the addition of Development Reagent (Invitrogen, CA). After 1 hour incubation at room temperature the fluorescence is measured using a FlexStation plate reader (Molecular Devices, Sunnyvale, Calif.). The reader settings used are as follows: Fluorescence mode, endpoint, top read, excitation 400 nm, emission 445 nm and 520 nm, Auto Cutoff 435 nm and 515 nm, PMT sensitivity high, 6 reads per well Inhibition of JAK activity is calculated as the percent phosphorylation of substrate in the presence of inhibitor compared to the percent phosphorylation of substrate in the absence of inhibitor. IC50's were derived using Xlfit 4.3 (IDBS, UK), 4 parameter logistic model 205: Y=(A+((B−A)/(1+((C/x)^D)))).

JAK2 = JAK2 (Homo sapiens (Human), UniProt O60674); assay: Purified kinase assay (Z'-LYTE), JAK2; conditions: Table 1; read-out: JAK2 IC50
Chain of JAK2 (O60674 849-1124): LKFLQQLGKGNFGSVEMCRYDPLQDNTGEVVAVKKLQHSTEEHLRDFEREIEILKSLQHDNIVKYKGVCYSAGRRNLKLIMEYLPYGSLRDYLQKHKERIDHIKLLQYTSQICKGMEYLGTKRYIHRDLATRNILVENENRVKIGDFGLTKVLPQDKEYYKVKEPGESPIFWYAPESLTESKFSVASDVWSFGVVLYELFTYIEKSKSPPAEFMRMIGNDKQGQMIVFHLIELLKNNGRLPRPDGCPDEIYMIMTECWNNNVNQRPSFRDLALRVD
Experimental: as §1, §2

JAK3 = JAK3 (Homo sapiens (Human), UniProt P52333); assay: Purified kinase assay (Z'-LYTE), JAK3; conditions: Table 1; read-out: JAK3 IC50
Chain of JAK3 (P52333 822-1111): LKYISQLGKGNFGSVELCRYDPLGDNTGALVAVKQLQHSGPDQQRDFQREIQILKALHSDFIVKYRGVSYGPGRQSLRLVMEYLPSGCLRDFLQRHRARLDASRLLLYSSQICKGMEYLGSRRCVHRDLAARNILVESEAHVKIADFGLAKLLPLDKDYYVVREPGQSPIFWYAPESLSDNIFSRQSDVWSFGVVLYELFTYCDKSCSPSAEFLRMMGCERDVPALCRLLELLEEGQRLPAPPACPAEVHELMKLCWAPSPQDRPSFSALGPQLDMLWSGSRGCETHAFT
Experimental: as §1, §2

Chain of JAK1 (P23458 875-1153): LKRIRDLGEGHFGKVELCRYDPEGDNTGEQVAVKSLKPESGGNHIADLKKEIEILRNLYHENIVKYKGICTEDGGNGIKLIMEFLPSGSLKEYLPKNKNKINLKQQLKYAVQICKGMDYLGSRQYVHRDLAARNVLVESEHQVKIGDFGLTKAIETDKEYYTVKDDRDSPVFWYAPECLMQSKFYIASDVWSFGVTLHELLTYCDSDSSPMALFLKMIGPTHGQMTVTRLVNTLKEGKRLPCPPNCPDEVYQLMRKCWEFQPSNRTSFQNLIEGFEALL

IC50 (JAK1) [nM]	IC50 (JAK2) [nM]	IC50 (JAK3) [nM]	SMILES
> 1000	100 to 1000	1 to 10	NC(=O)c1nnc(Nc2ccc(C(=O)N3CCCC3)cc2)cc1NCc1cccc(F)c1F [Compound 83]
100 to 1000	100 to 1000	10 to 100	NC(=O)c1nnc(Nc2cnn(CC3CC3)c2)cc1NCc1cccc(F)c1F [Compound 118]
100 to 1000	10 to 100	1 to 10	CC(C)n1cc(Nc2cc(NCc3cccc4ccsc34)c(C(N)=O)nn2)cn1 [Compound 112]
1 to 10	1 to 10	1 to 10	N#Cc1ccc(N2CCC(Nc3cc(Nc4cnccn4)nnc3C(N)=O)CC2)nc1 [Compound 97]
100 to 1000	100 to 1000	1 to 10	CS(=O)(=O)Cc1ccc(Nc2cc(NCc3cccc4ccsc34)c(C(N)=O)nn2)cc1 [Compound 100]
> 1000	100 to 1000	10 to 100	CC(C)n1cc(Nc2cc(NCc3cccc(F)c3)c(C(N)=O)nn2)cn1 [Compound 106]
10 to 100	10 to 100	10 to 100	CS(=O)(=O)Cc1ccc(Nc2cc(NC3CCN(c4ccc(C#N)cn4)CC3)c(C(N)=O)nn2)cc1 [Compound 93]
100 to 1000	100 to 1000	10 to 100	CS(=O)(=O)Cc1ccc(Nc2cc(NCc3cccc(F)c3)c(C(N)=O)nn2)cc1 [Compound 85]
> 1000	> 1000	10 to 100	CS(=O)(=O)Cc1cccc(Nc2cc(NCc3cccc(F)c3)c(C(N)=O)nn2)c1 [Compound 91]
10 to 100	10 to 100	10 to 100	CC(=O)N1CCN(c2ccc(Nc3cc(NC4CCN(c5ccc(C#N)cn5)CC4)c(C(N)=O)nn3)cc2)CC1 [Compound 92]
> 1000	100 to 1000	10 to 100	CC(=O)N1CCC(Cn2cc(Nc3cc(NCc4cccc(F)c4)c(C(N)=O)nn3)cn2)CC1 [Compound 127]
> 1000	100 to 1000	1 to 10	CN(C)C(=O)N1CCC(Cn2cc(Nc3cc(NCc4cccc(F)c4F)c(C(N)=O)nn3)cn2)CC1 [Compound 133]
100 to 1000	100 to 1000	1 to 10	NC(=O)c1nnc(Nc2ccc(C(=O)N3CCCC3)cc2)cc1NCc1cc(F)cc(F)c1 [Compound 82]
> 1000	100 to 1000	10 to 100	CN(C)C(=O)C1CCN(c2ccc(Nc3cc(NCc4cccc(F)c4)c(C(N)=O)nn3)cc2)CC1 [Compound 90]
> 1000	100 to 1000	10 to 100	CCn1cc(Nc2cc(NCc3cccc(F)c3)c(C(N)=O)nn2)cn1 [Compound 123]
> 1000	> 1000	10 to 100	CS(=O)(=O)Cc1ccc(Nc2cc(NCc3cccc(-c4ccncc4)c3)c(C(N)=O)nn2)cc1 [Compound 132]
100 to 1000	10 to 100	1 to 10	CC(C)n1cc(Nc2cc(NCc3c(F)cccc3F)c(C(N)=O)nn2)cn1 [Compound 113]
100 to 1000	100 to 1000	10 to 100	CC(C)n1cc(Nc2cc(NCc3cccc(F)c3F)c(C(N)=O)nn2)cn1 [Compound 114]

The next lines start with the molecule.

SMILES	IC50 (JAK1) [nM]	IC50 (JAK2) [nM]	IC50 (JAK3) [nM]
NC(=O)c1nnc(Nc2cc(F)c(N3CCOCC3)c(F)c2)cc1NCc1cccc(F)c1F [Compound 41]	> 1000	> 1000	> 1000
NC(=O)c1nnc(Nc2ccc(N3CCOCC3)cc2)cc1NCc1cc(F)ccc1F [Compound 37]	> 1000	10 to 100	10 to 100
NC(=O)c1nnc(Nc2ccc(N3CCOCC3)cc2)cc1NCc1c(F)cccc1F [Compound 39]	100 to 1000	10 to 100	1 to 10
CC(=O)N1CCN(c2ccc(Nc3cc(NCc4ccccn4)c(C(N)=O)nn3)cc2)CC1 [Compound 78]	> 1000	> 1000	100 to 1000
CC(=O)N1CCN(c2ccc(Nc3cc(NCc4cccc(-c5cccnc5)c4)c(C(N)=O)nn3)cc2)CC1 [Compound 70]	> 1000	100 to 1000	10 to 100
NC(=O)c1nnc(Nc2ccc(N3CCOCC3)c(F)c2)cc1NCc1cccc(F)c1F [Compound 43]	> 1000	> 1000	10 to 100
NC(=O)c1nnc(Nc2cccc(CN3CCOCC3)c2)cc1NCc1cccc(F)c1 [Compound 48]	> 1000	100 to 1000	10 to 100
CC(=O)N1CCN(c2ccc(Nc3cc(NCC(C)C)c(C(N)=O)nn3)cc2)CC1 [Compound 14]	> 1000	100 to 1000	100 to 1000
NC(=O)c1nnc(Nc2ccc(N3CCNCC3)cc2)cc1NCc1cccs1 [Compound 22]	> 1000	> 1000	10 to 100
NC(=O)c1nnc(Nc2ccc(N3CCOCC3)cc2)cc1NCc1cc(F)cc(F)c1 [Compound 36]	> 1000	100 to 1000	10 to 100
CC(=O)N1CCN(c2ccc(Nc3cc(NCc4cccc(-c5ccncc5)c4)c(C(N)=O)nn3)cc2)CC1 [Compound 69]	> 1000	> 1000	10 to 100
NC(=O)c1nnc(Nc2ccc(N3CCNCC3)nc2)cc1NCc1cccc(F)c1 [Compound 50]	> 1000	> 1000	100 to 1000
NC(=O)c1nnc(Nc2ccc(OCCN3CCCC3)cc2)cc1NCc1cccc(F)c1 [Compound 51]	> 1000	100 to 1000	10 to 100
NC(=O)c1nnc(Nc2ccc(C(=O)N3CCCC3)cc2)cc1NCc1cccc(F)c1 [Compound 52]	> 1000	100 to 1000	10 to 100
Cc1cc(Nc2cc(NCc3cccc(F)c3F)c(C(N)=O)nn2)ccc1N1CCOCC1 [Compound 40]	> 1000	> 1000	10 to 100
NC(=O)c1nnc(Nc2ccc(C(=O)N3CCCC3)cn2)cc1NCc1cccc(F)c1 [Compound 73]	100 to 1000	10 to 100	1 to 10
NC(=O)c1nnc(Nc2cccc(N3CCOCC3)n2)cc1NCc1cccc(F)c1 [Compound 62]	> 1000	> 1000	> 1000
NC(=O)c1nnc(Nc2ccc(N3CCOCC3)cc2)cc1NCc1cccc(F)c1F [Compound 38]	> 1000	100 to 1000	10 to 100
CCC(=O)N1CCC(c2ccc(Nc3cc(NCc4ccccc4F)c(C(N)=O)nn3)cc2)CC1 [Compound 25]	> 1000	> 1000	10 to 100
CC(=O)N1CCN(c2ccc(Nc3cc(NC4CCCC4)c(C(N)=O)nn3)cc2)CC1 [Compound 10]	100 to 1000	100 to 1000	100 to 1000
CC(=O)N1CCN(c2ccc(Nc3cc(N[C@H](C)C(C)C)c(C(N)=O)nn3)cc2)CC1 [Compound 75]	100 to 1000	10 to 100	10 to 100
NC(=O)c1nnc(Nc2ccc(C(=O)N3CCCC3)c(Cl)c2)cc1NCc1cccc(F)c1 [Compound 55]	> 1000	100 to 1000	10 to 100
CCC(=O)N1CCN(c2ccc(Nc3cc(NCc4cc(F)ccc4F)c(C(N)=O)nn3)cc2)CC1 [Compound 32]	> 1000	10 to 100	1 to 10
CC(=O)N1CCN(c2ccc(Nc3cc(NCc4cccc(Cl)c4)c(C(N)=O)nn3)cc2)CC1 [Compound 46]	100 to 1000	100 to 1000	10 to 100
NC(=O)c1nnc(Nc2ccc(N3CCOCC3)cc2)cc1NC1CCC1 [Compound 6, 4-(cyclobutylamino)-6-((4-morpholinophenyl)amino)pyridazine-3-carboxamide]	> 1000	100 to 1000	100 to 1000
NC(=O)c1nnc(Nc2ncc(C(=O)N3CCOCC3)s2)cc1NCc1cccc(F)c1 [Compound 77]	> 1000	> 1000	10 to 100
CCC(=O)N1CCN(c2ccc(Nc3cc(NCc4cccc(F)c4)c(C(N)=O)nn3)cc2)CC1 [Compound 30]	> 1000	100 to 1000	10 to 100
CC(C)Nc1cc(Nc2ccc(N3CCNCC3)cc2)nnc1C(N)=O [Compound 12]	> 1000	> 1000	> 1000
